Literature values as cited in US9968621B2, “Parenteral compositions of celecoxib” (Dr. Reddy's Laboratories Ltd., priority 2014, dated 2018).

Conditions: after an oral dose

Cc1ccc(-c2cc(C(F)(F)F)nn2-c2ccc(S(N)(=O)=O)cc2)cc1 [Celecoxib, 4-[5-(4-methylphenyl)-3-(trifluoromethyl)-1H-pyrazol-1-yl] benzenesulfonamide]
Time of peak plasma levels: approximately 3 hrs
